The target of one experiment is T1, recombinant human PFK-L (Homo sapiens, UniProt P17858).
T1 construct: made in house; host or cells: PFK-deficient Saccharomyces cerevisiae
T1 sequence (P17858 1-780): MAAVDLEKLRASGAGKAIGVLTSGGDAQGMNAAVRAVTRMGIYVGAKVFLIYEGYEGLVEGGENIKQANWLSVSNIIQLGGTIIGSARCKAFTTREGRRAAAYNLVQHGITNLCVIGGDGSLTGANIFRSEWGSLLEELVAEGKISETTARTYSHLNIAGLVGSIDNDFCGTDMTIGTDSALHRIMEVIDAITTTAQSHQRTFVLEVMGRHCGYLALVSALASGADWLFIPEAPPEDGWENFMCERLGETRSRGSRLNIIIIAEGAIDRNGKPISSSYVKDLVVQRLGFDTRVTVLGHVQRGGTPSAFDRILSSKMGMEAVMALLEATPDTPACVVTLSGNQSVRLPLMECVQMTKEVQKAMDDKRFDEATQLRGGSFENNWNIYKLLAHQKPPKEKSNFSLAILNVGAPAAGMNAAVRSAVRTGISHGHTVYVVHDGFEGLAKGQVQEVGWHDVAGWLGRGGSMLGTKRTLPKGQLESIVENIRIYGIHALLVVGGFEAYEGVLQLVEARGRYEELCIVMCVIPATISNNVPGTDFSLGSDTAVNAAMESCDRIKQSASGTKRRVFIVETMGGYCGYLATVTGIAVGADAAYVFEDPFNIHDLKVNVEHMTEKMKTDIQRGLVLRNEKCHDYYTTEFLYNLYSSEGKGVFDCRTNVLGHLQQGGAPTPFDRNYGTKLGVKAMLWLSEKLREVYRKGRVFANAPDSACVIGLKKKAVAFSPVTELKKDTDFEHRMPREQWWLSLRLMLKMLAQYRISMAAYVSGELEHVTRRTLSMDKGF
Briefly: ALDO-TIM-G3PDH enzyme-linked kinetic assay, PFK-L. The conditions noted are these: PFK-L; for change in kcat^ATP/K0.5^ATP compared with control PFK without modulator / change in kcat^F6P/K0.5^F6P compared with control PFK without modulator / K0.5F6P + modulator / VmaxF6P + modulator / K0.5ATP + modulator / VmaxATP + modulator: modulator 600 µM; for K0.5F6P + modulator / VmaxF6P + modulator: ATP 0.5mM; for K0.5F6P + modulator / VmaxF6P + modulator / K0.5ATP + modulator / VmaxATP + modulator: N=3, mean (SD); for K0.5ATP + modulator / VmaxATP + modulator: F6P 4mM. Format: biochemical. As for the experimental part: (§1) Recombinant human PFKs were expressed in PFK-deficient Saccharomyces cerevisiae and purified using the methods described previously, adapting earlier materials and protocols. Production of PFK intended for use in ATP titration experiments used 1 mM F6P as a tetramer stabilising agent in protein purification and storage buffers. Production of PFK intended for use in F6P titration experiments used 1 mM ATP as a tetramer stabilising agent in protein purification and storage buffers. Experimental details on the purification and characterisation procedures including figures showing SDS–PAGE gels of the highly pure PFKs used in the kinetic experiments described in this work have been recently published.
(§2) Assay buffer consisted of 50 mM TEA, 100 mM KCl, 10 mM MgCl2, 1 mM Tris(2-carboxyethyl)phosphine hydrochloride (TCEP), 10% glycerol, pH 7.4. Assay mix consisted of 5 units/ml glycerol-3-phosphate dehydrogenase (G3PDH, Sigma–Aldrich G6880), 2.5 units/ml aldolase (Sigma–Aldrich A2714), 25 units/ml triosephosphate isomerase (TIM, Sigma–Aldrich T6258), and 1.25 mM NADH. ATP and F6P were obtained from Sigma–Aldrich (A2383 and F3627, respectively). For ATP titrations, 38 µl of buffer or ligand were added to a clear non-binding 96-well plate. 40 µl of assay mix containing 10 mM F6P (final concentration 4 mM) was added and the plate was incubated at 25°C for 5 min. An amount of 2 µl of PFK isoforms were added to each well from stock concentrations of 150 µg/ml and the reaction was immediately started with 20 µl of ATP at varying concentrations. For F6P titrations, 30 µl of buffer or ligand was added to a clear non-binding 96-well plate. An amount of 40 µl of assay mix containing 1.25 mM ATP (final concentration 0.5 mM) was added and the plate was incubated at 25°C for 5 min. An amount of 5 µl of PFK isoforms were added to each well from stock concentrations of 200 µg/ml and the reaction was immediately started with 20 µl F6P at varying concentrations. All ligands and substrates (including ATP) were used at pH 7.4. All metabolites were obtained from Sigma–Aldrich unless otherwise stated. […] A SpectraMax M5 Multi-Mode Microplate Reader was used to measure A340nm at 13 s intervals for 10 min. All experiments were performed in triplicate unless otherwise stated.
(§3) Time-dependent absorbance change was converted into rate of NADH oxidation (µM s^−1) or specific activity (µmol min^−1 mg protein^−1) using the Beer-Lambert law (molar extinction coefficient of NADH 6.22 mM^−1 cm^−1). The initial rate of reaction was used to avoid accumulation of ADP, which activates PFK, interfering with the determination of kinetic properties. Non-linear regression analysis was performed on substrate titration data using GraphPad Prism 7, with curves fitted using allosteric sigmoidal models, enabling determination of steady-state kinetic values.

A further experiment addresses T2, recombinant human PFK-P (Homo sapiens, UniProt Q01813).
T2 construct: made in house; host or cells: PFK-deficient Saccharomyces cerevisiae
T2 sequence (Q01813 1-784): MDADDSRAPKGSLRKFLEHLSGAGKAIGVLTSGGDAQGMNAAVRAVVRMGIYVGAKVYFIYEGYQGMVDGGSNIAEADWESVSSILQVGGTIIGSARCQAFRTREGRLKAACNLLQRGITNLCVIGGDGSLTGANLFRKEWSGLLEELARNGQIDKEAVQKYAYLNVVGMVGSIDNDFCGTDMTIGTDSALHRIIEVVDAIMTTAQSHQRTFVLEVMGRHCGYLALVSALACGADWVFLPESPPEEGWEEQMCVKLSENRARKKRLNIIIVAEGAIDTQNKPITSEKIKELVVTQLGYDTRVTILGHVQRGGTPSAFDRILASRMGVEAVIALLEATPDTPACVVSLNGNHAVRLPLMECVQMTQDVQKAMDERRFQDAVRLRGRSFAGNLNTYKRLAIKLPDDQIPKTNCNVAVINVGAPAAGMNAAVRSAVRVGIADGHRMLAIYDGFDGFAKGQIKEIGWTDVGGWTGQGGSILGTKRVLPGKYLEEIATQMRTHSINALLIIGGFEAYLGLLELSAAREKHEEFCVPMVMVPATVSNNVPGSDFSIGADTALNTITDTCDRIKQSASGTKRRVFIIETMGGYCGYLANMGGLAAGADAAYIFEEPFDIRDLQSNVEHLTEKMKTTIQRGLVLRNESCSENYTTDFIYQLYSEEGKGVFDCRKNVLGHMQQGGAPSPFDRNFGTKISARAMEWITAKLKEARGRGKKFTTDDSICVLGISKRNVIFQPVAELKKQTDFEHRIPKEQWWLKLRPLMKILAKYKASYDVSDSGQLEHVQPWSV
Briefly: ALDO-TIM-G3PDH enzyme-linked kinetic assay, PFK-P. Format: biochemical. The conditions noted are these: for change in kcat^ATP/K0.5^ATP compared with control PFK without modulator / change in kcat^F6P/K0.5^F6P compared with control PFK without modulator / K0.5F6P + modulator / VmaxF6P + modulator / K0.5ATP + modulator / VmaxATP + modulator: modulator 600 µM; for K0.5F6P + modulator / VmaxF6P + modulator: ATP 0.5mM; for K0.5F6P + modulator / VmaxF6P + modulator / K0.5ATP + modulator / VmaxATP + modulator: N=3, mean (SD); for K0.5ATP + modulator / VmaxATP + modulator: F6P 4mM. On the procedure: as §1, §2, §3

The test system of the next experiment is PFKP. The following applies: cited from earlier work.

Where two headings read alike, the source gives them in different places.

Broadly, the IC50 is the midpoint of a concentration-inhibition curve. Turning to `O=C(O)CC(O)(CC(=O)O)C(=O)O` [Citrate], the “IC50^citrate” value on recombinant human PFK-L (dose-response) is “no clear relationship”. Moreover, at recombinant human PFK-L, the “change in kcat^ATP/K0.5^ATP compared with control PFK without modulator” value was “+28%”, the “change in kcat^F6P/K0.5^F6P compared with control PFK without modulator” value was “+2%”, the “K0.5F6P + modulator” value is recorded as 2471 (244) M and the “VmaxF6P + modulator” value was 6.52 (0.71) moles/min/mg. In addition, on recombinant human PFK-L, the “K0.5ATP + modulator” value is on record as 108.4 (9.5) M and the “VmaxATP + modulator” value is listed as 36.14 (1.12) moles/min/mg. The IC50 at recombinant human PFK-P (dose-response, read-out: IC50^citrate) was determined as 177 ± 132 µM. Moreover, on recombinant human PFK-P, the “change in kcat^ATP/K0.5^ATP compared with control PFK without modulator” value is given as “+136%”, the “change in kcat^F6P/K0.5^F6P compared with control PFK without modulator” value is −78%, the “K0.5F6P + modulator” value was 1494 (627) M and the “VmaxF6P + modulator” value was 0.43 (0.12) moles/min/mg. Moreover, at recombinant human PFK-P, the “K0.5ATP + modulator” value was 46.0 (14.4) M and the “VmaxATP + modulator” value is recorded as 10.18 (0.89) moles/min/mg. Also, the IC50 with PFKP (ref Foe and Kemp, 1985, read-out: IC50 or AC50 (inhibitor)) is 750 µM. Also, the IC50 in the experiment on PFKP (ref Sanchez-Martinez et al., 2000, read-out: IC50 or AC50 (inhibitor)) was 400 µM. Besides, in the experiment with PFKP (ref Vora 1985, read-out: IC50 or AC50 (inhibitor)), the IC50 was 80 µM.

For `Nc1ncnc2c1ncn2[C@@H]1O[C@H](COP(=O)(O)OP(=O)(O)O)[C@@H](O)[C@H]1O` [ADP], at recombinant human PFK-L, the “effect on PFK activity, in words” value is “mixed effects”; the “change in kcat^ATP/K0.5^ATP compared with control PFK without modulator” value is −47%; the “change in kcat^F6P/K0.5^F6P compared with control PFK without modulator” value is reported as “+157%”; the “K0.5F6P + modulator” value is 872.9 (14.9) M. In addition, on recombinant human PFK-L, the “VmaxF6P + modulator” value was 5.65 (0.07) moles/min/mg, the “K0.5ATP + modulator” value was 362.0 (46.5) M and the “VmaxATP + modulator” value was 49.38 (2.48) moles/min/mg. Moreover, on recombinant human PFK-P, the “effect on PFK activity, in words” value is listed as “activating”; the “change in kcat^ATP/K0.5^ATP compared with control PFK without modulator” value is given as “+39%”; the “change in kcat^F6P/K0.5^F6P compared with control PFK without modulator” value was “+129%”; the “K0.5F6P + modulator” value is recorded as 821.7 (53.4) M. Further, at recombinant human PFK-P, the “VmaxF6P + modulator” value is reported as 2.51 (0.11) moles/min/mg, the “K0.5ATP + modulator” value was 290.5 (36.0) M and the “VmaxATP + modulator” value is 37.99 (1.74) moles/min/mg.

(Values after paper PMC7702303, “Biochemical and transcript level differences between the three human phosphofructokinases show optimisation of each isoform for specific metabolic niches” (Biochemical Journal, 2020).)
